# Assays:
# [1] = test system: oral cavity and pharyngeal surfaces; assay: Sensory activity of ODT-A on volunteers; format: in vivo, human; settings: 6 to 8 trials per compound
# Method: ODT-A was prepared by dissolving the DAPA compound in absolute ethanol, adding a 80% mannitol-20% maltitol mixture of equal weight and then adding an equal volume of distilled water. The mixture was the stirred with a glass rod, and dispensed onto a piece of wax or parchment paper with a disposable plastic pipette. The viscous liquid drop formed was then dried under a heat source for at least 4 hr. The nominal dose of the API in ODT-A ranged from 1 to 3 mg/tablet. The dried tablets weighed on average 150 mg each and when on the dorsal surface of the tongue, rapidly dissolved completely in saliva and coated the oropharyngeal surface. These tablets were suitable for initial pilot studies, but were not uniform in size, were friable, especially in conditions of high ambient humidity, and were not readily amenable to further analytical evaluation.
# Sensory Qualities of ODT on the Oral Cavity and Pharyngeal Surfaces The DAPA ODT of Study 2 were evaluated for sensory properties on volunteers. The ODT-A results [see table] are from 6 to 8 trials per compound in several experienced individuals familiar with sensory properties of “cooling agents”. The results of ODT-A will be discussed together with ODT-B and ODT-C.
# [2] = test system: throat; assay: Cold water test after ODT-A (cold discomfort); format: in vivo, human; set-up: key: If the subject felt “normal coolness” in the throat, the value was “0”; if the water felt “excessively cold” on the throat, it was rated as “+”; if there was “aching cold/discomfort” on the throat, the ranking was “++”; settings: ODT-A on the tongue, ice water drunk 10 min later
# Method: After application of ODT-A there were sensations associated with heat abstraction of various intensity and duration. Of particular note was the sensation of “icy or painful” cold was felt with some compounds, but the effect was variable. To isolate this sensation more precisely and reduce variability, ODT-A was placed on the tongue and 10 min later the subject was instructed to drink a mouthful of water previously equilibrated with ice chips. If the subject felt “normal coolness” in the throat, the value was “0”; if the water felt “excessively cold” on the throat, it was rated as “+”; and if there was “aching cold/discomfort” on the throat, the ranking was “++”. The term “cold discomfort” was applied compounds that produced “++”, and this phenomenon could now be reliably defined and identified with the cold water test.
# [3] = test system: mouth and throat; assay: Sensory activity of ODT-C on volunteers (double-blind, modified ASHRAE scale); format: in vivo, human; settings: for ODT-C test results (sensation and taste in words) / duration of cooling effect: 1.2 to 1.5 mg per ODT; for ODT-C test results (sensation and taste in words): 4 volunteers; for quality of heat abstraction sensation (peak intensity) / duration of cooling effect: ODT-C; for ASHRAE equivalent: peak heat abstraction sensation, modified ASHRAE scale neutral [0] to icy cold [-4]
# Method: ODT-C. More experiments were conducted to find a smaller tablet, in the range of 40 to 60 mg, with a disintegration of <10 sec. These paraemters might achieve a better pharmacological effect. ODT-B was 100 mg in size and disintegrated in <20 sec. […] For example, to 1.5 g of DAPA-2-5 is added 1.5 g of absolute ethanol, followed by 2.0 g of Neusilin US2. The mixture is shaken or mixed in a Speedmixer at 500 rpm for 1 min. The sample is placed under a heat source and about 2 hr later, the sample size is re-weighed with the expectation that the ethanol has been evaporated and the sample now weights 3.5 g. This powder is free-flowing. • b. a sample of maltitol powder is prepared (Maltisorb® P200 from Roquette). • c. a sample of Prosolv® EasyTab is prepared (JRS Pharma, Rosenburg, Germany). • d. a blend of a. [2.80 g], b. [15.73 g] and c. [31.46 g] is prepared to make 1000 ODT tablets, each weighing 50 mg and containing 1.2 mg of DAPA-2-5. • e. the blend is first shaken by hand, then placed for 2 min in a SpeedMixer at 500 rpm. The blend is poured into the funnel of a New Single Punch Tablet Press Pill Making Machine Maker TDP-1-5 [available from Amazon.com] and the extruded tablets are collected.
# ODT-C, described in Study 2, were tested for sensory properties on 4 volunteers, with at least 3 trials per compound and at 1.2 to 1.5 mg per ODT. The ODT was placed on the mid-line posterior dorsal surface of the tongue and sensory effects recorded for 30 min on a standardized form […]. The ODT were coded and administered on a double-blind basis. A modified ASHRAE scale of neutral, slightly cool [-1], cool [-2], cold [-3], and icy cold [-4] was used to rank the peak heat abstraction sensations in the mouth and throat. Other perceived effects, e.g. taste and duration, were also noted.
# [4] = target: T1, cloned hTRPM8 channel (encoded by the human TRPM8 gene, expressed in CHO cells) (Homo sapiens, UniProt Q7Z2W7); assay: TRPM8 agonist FLIPR Fluo-8 calcium assay; format: cell-based; settings: for TRPM8 Relative Potency: DAPA-1-7 = 1
# T1 construct: host or cells: CHO cells, stably transfected
# T1 sequence (Q7Z2W7 whole entry): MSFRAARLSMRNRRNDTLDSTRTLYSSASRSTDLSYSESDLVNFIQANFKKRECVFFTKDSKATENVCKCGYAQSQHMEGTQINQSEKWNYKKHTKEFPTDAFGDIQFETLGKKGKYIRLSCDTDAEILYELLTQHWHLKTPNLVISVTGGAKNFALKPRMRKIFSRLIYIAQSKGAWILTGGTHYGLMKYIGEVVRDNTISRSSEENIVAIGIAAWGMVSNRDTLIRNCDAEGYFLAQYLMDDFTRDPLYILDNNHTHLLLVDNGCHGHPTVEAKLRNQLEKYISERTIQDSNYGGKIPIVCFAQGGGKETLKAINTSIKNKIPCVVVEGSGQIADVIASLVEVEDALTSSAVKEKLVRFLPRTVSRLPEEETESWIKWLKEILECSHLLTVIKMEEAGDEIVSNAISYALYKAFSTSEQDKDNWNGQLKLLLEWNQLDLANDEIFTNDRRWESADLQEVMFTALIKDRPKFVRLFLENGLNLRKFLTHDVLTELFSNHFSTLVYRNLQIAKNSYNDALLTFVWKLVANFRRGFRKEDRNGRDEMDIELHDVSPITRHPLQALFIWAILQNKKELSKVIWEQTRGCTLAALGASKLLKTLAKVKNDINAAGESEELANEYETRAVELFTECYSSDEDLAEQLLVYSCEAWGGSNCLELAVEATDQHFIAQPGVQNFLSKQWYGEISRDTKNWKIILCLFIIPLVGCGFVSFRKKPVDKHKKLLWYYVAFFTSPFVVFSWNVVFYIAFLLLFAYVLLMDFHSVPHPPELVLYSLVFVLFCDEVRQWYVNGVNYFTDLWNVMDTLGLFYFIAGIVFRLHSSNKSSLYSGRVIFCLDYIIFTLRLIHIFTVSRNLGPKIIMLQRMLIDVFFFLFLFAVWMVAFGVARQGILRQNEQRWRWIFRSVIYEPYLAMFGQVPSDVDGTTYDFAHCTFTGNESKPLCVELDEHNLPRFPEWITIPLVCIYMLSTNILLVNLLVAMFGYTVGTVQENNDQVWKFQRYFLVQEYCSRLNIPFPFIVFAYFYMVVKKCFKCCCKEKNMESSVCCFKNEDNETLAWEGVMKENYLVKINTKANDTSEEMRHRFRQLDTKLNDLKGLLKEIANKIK
# Method: The in vitro effects of test compounds were evaluated on cloned hTRPM8 channel (encoded by the human TRPM8 gene, expressed in CHO cells) using a Fluo-8 calcium kit and a Fluorescence Imaging Plate Reader (FLIPR^TETRA™) instrument.
# Test compounds and positive control solutions were prepared by diluting stock solutions in a HEPES-buffered physiological saline (HBPS) solution. The test compound and control formulations were loaded in polypropylene or glass-lined 384-well plates, and placed into the FLIPR instrument (Molecular Devices Corporation, Union City, Calif., USA). The test compounds were evaluated at 4 or 8 concentrations with n=4 replicates per determination. […] The test cells were Chinese Hamster Ovary (CHO) cells stably transfected with human TRPM8 cDNAs.
# For the FLIPR^TETRA™ assay, cells were plated in 384-well black wall, flat clear-bottom microtiter plates (Type: BD Biocoat Poly-D-Lysine Multiwell Cell Culture Plate) at approximately 30,000 cells per well. Cells were incubated at 37° C. overnight to reach a near confluent monolayer appropriate for use in a fluorescence assay. The test procedure was to remove the growth media and to add 40 μL of HBPS containing Fluo-8 for 30 min at 37° C. 10 μL of test compound, vehicle, or control solutions in HBPS were added to each well and read for 4 min.
# Concentration-response data were analyzed via the FLIPR Control software that is supplied with the FLIPR System (MDS-AT) and fitted to a Hill equation of the following form: […]
# where: “Base” is the response at low concentrations of test compound; “Max” is the maximum response at high concentrations; “xhalf” is the EC50, the concentration of test compound producing half-maximal activation; and “rate” is the Hill coefficient. Nonlinear least squares fits were made assuming a simple one-to-one binding model.
Compound,Duration [1],Onset [1],Sensory Quality [1],Cold Discomfort [2],ODT-C test results (sensation and taste in words) [3],quality of heat abstraction sensation (peak intensity) [3],duration of cooling effect [3],ASHRAE equivalent [3],Relative Potency to L-menthol [4],TRPM8 Relative Potency [4],rank in TRPM8 potency among the 21 compounds tested [4]
"CCCCCCP(=O)(C(C)C)C(C)C [DAPA-1-6, 1-Di(isopropyl)-phosphinoyl-hexane]",16 min,0.6 min,cool/cold,++,"intense sensation of icy cold, but has unpleasant",cold and icy cold which was painful to the back of the throat,lasting >10 min,−3.5,1.6,,
"CCCCCCCP(=O)(C(C)C)C(C)C [DAPA-1-7, 1-Di(isopropyl)-phosphinoyl-heptane]",16 min,0.6 min,cool/cold,+,"intense sensation of icy cold, but has unpleasant",cold and icy cold which was painful to the back of the throat,"taste on the tongue: test dose of 1 to 2 mg, >15 min.",−3.5,5.4,1,
"CCCCCP(=O)(C(C)CC)C(C)CC (stereo not shown) [DAPA-2-5, 1-Di(sec-butyl)-phosphinoyl-pentane]",12 min,0.1 min,dynamic cool,0,pleasant dynamic cool,refreshing coolness and cold,12 to 15 min,−2.7,2.2,0.41,12
"CCCCCCP(=O)(C(C)CC)C(C)CC (stereo not shown) [DAPA-2-6, 1-Di(sec-butyl) phosphinoyl-hexane]",18 min,0.7 min,cool/cold,++,"intense sensation of icy cold, but has unpleasant",cold and icy cold which was painful to the back of the throat,"taste on the tongue, long-lasting >15 min",−3.2,4.7,0.87,
"CCCCCCCP(=O)(C(C)CC)C(C)CC (stereo not shown) [DAPA-2-7, 1-Di(sec-butyl) phosphinoyl-heptane]",21 min,0.7 min,cool/cold,++,"intense sensation of icy cold, but has unpleasant",cold and icy cold which was painful to the back of the throat,"taste on the tongue, long-lasting >15 min",−3.5,3.4,0.64,
"CCCCCCCCP(=O)(C(C)CC)C(C)CC (stereo not shown) [DAPA-2-8, 1-Di(sec-butyl) phosphinoyl-octane]",27 min,1.2 min,cool,+,strong unpleasant taste,,,−2.7,2.9,0.71,
